The assay addresses T1, CdRelQ (Clostridioides difficile, UniProt A0A9R0BI07).
T1 sequence (A0A9R0BI07 1-270): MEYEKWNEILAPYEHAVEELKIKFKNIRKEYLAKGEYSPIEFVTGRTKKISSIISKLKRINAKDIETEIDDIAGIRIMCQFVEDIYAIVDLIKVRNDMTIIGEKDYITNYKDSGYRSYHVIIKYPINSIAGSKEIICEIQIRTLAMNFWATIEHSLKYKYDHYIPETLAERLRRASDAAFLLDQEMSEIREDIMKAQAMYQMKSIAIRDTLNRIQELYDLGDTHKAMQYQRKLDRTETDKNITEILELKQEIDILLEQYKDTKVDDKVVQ
The experiment in a line: isothermal titration calorimetry, single-binding-site model. Background: ITC needs no label: the signal is the heat of the interaction.

As to `Nc1nc2c(ncn2[C@@H]2O[C@H](COP(=O)(O)OP(=O)(O)O)[C@@H](O)[C@H]2O)c(=O)[nH]1` [GDP], the Kd was 490 µM.

With `Nc1nc2c(ncn2[C@@H]2O[C@H](COP(=O)(O)OP(=O)(O)OP(=O)(O)O)[C@@H](O)[C@H]2O)c(=O)[nH]1` [GTP], the Kd was 20.5 µM.

A word on the Kd: it is the free concentration of one partner at which half of the binding sites on the other are occupied at equilibrium, for simple one-to-one binding. Read a high Kd as weaker binding.

The values above are taken from publication doi:10.1101/2021.08.02.454818v1 (biorxiv, 2021).
